The source of these data is patent US20240280564A1, “ASSAY FOR EXTRINSIC INHIBITION” (The J. David Gladstone Institutes, a testamentary trust …, priority 2021, published 2024).

The conditions of data set [1]: cited from earlier work.
The subject of data set [2] is BMP signal transducers SMAD1/5 (phosphorylation). Briefly: Immunoblot of phospho-SMAD1/5 in fibrinogen-treated primary rat OPCs. The data set is classed as cell-based. Here is the method:
(§1) Cells or tissue were lysed in RIPA lysis buffer (Thermo Fisher Scientific) supplemented with protease/phosphatase inhibitor cocktails (Calbiochem) and lysates were cleared by centrifuging at 13,000×g for 15 minutes at 4° C. Equal amounts of protein were loaded in 4%-12% bis-tris gels (Thermo Fisher Scientific) and analyzed by western blotting. Bands were visualized with HRP-conjugated secondary antibodies (Cell Signaling Technology). Densitometry was performed using ImageJ Software (NIH) with values for each band normalized to GAPDH loading controls from the same membrane. Primary antibodies were: Id2 (1:1000, rabbit monoclonal, #M213, CalBioreagents); phospho-Smad1/5 (1:1000, rabbit monoclonal, #9516, Cell Signaling Technology); GAPDH (1:1000, rabbit monoclonal, #2118, Cell Signaling Technology)

Another data set deals with primary rat OPCs. Briefly: OPC-X-screen: high-content imaging of MBP+ OLs and GFAP+ astrocytes in fibrinogen-treated OPCs. In kind it is cell-based. As to conditions: for Cell-fate switch of OPCs to GFAP+ cells by fibrinogen: fibrinogen-treated primary rat OPCs; for OPC differentiation to mature MBP+ OLs in the presence of fibrinogen: myelin-promoting compound screen, fibrinogen 1.5 mg/ml, benztropine, clemastine, quetiapine, miconazole, (±)U-50488, DMH1 1 μM, clobetasol 5 μM, XAV-939 0.1 μM.

A further data set deals with BMP target protein ID2. Briefly: Immunoblot of ID2 protein in fibrinogen-treated primary rat OPCs. In kind it is cell-based. Here is the method: as §1
A general note: In western blotting, separated proteins are transferred to a membrane and probed.

Another data set relates to MOG35-55 EAE mice. Briefly: Chronic MOG35-55 EAE in NG2-CreERTM:RosatdTomato/+ mice, therapeutic treatment. In kind it is in vivo, mouse.
The test system of another data set is NOD-MOG35-55 EAE mice. Briefly: Progressive NOD-MOG35-55 EAE, therapeutic treatment. In kind it is in vivo, mouse.
The mark [3] stands for this setting: fibrinogen 2.5 mg/ml, three-fold serial dilutions 5 μM to 2 nM, 3 days.
[4] abbreviates: fibrinogen alone in the OPC-X assay.

Consider `CC(C)Oc1ccc(-c2cnc3c(-c4ccnc5ccccc45)cnn3c2)cc1` [DMH1], for which the Water solubility entry in data set [1] is “not water-soluble”. Besides, the “Fibrinogen-induced phosphorylation of SMAD1/5” value in data set [2] is given as “blocked”. Moreover, in the data set on primary rat OPCs (3 days), the “Cell-fate switch of OPCs to GFAP+ cells by fibrinogen” value is given as “abolished” and the “OPC differentiation to mature MBP+ OLs in the presence of fibrinogen” value (from here on “OPC differentiation to mature MBP+ OLs”) is given as “restored OPC differentiation to mature OLs to control levels”. The “Fibrinogen-induced expression of ID2” value in the data set with BMP target protein ID2 was “blocked”.

Consider `c1cc(-c2cnn3cc(-c4ccc(N5CCNCC5)cc4)cnc23)c2cccnc2c1` [LDN-212854], for which, in data set [1], the Water solubility entry was “water-soluble”. Further, in the data set on primary rat OPCs (setting [3]), the “Formation of GFAP+ astrocytes from fibrinogen-treated OPCs, dose response” value is listed as “blocked” and the “Mature OL (MBP+) differentiation of fibrinogen-treated OPCs, dose response” value is recorded as “restored mature OL differentiation”. Further, the Clinical scores result with MOG35-55 EAE mice (6 mg/kg twice daily for 14 days starting at peak disease, vs saline) is reported as “significantly improved”. For the same compound, the “Formation of OPC-derived GFAP+ astrocytes” value with MOG35-55 EAE mice (14 day treatment, fate mapping) is given as “abolished”. The “Proportion of NG2tdTomato+ OPCs differentiated into GST-pi+ mature OLs” value in the data set on MOG35-55 EAE mice (14 day treatment, fate mapping, vs controls) is recorded as “increased”. The “ID2 expression in NG2 cells in the EAE white matter” value in the data set on MOG35-55 EAE mice (14 day treatment, vs saline) is given as “decreased”. Moreover, in the data set with MOG35-55 EAE mice (chronic, vs saline), the “Myelin damage (myelin circularity, in vivo 2P imaging)” value is given as “markedly reduced” and the “Perivascular NG2 clusters (in vivo 2P imaging)” value is reported as “markedly reduced”. For the same compound, in the data set on MOG35-55 EAE mice (vs saline), the “Demyelination in spinal cord” value is given as “reduced” and the “Fibrinogen deposition in spinal cord” value is “reduced”. Moreover, the “Group mean of maximum clinical scores” value in the data set on NOD-MOG35-55 EAE mice (30 days treatment, five-point scale, saline 2.36) is recorded as 1.75. For the same compound, the Clinical scores entry in the data set with NOD-MOG35-55 EAE mice (treated for 30 days, vs saline) was “significantly improved”. Also, in the data set with NOD-MOG35-55 EAE mice (vs saline), the “Demyelination in spinal cord” value was “reduced” and the “Fibrinogen deposition in spinal cord” value is listed as “reduced”.

Consider `Oc1nc(-c2ccc(C(F)(F)F)cc2)nc2c1CSCC2` [XAV-939], for which, in the data set on primary rat OPCs (3 days), the “OPC differentiation to mature MBP+ OLs” value is “did not overcome extrinsic inhibition of OPC differentiation by fibrinogen”.

`CN1[C@@H]2CC[C@H]1C[C@@H](OC(c1ccccc1)c1ccccc1)C2` [benztropine]: in the data set on primary rat OPCs (3 days), the “OPC differentiation to mature MBP+ OLs” value is “did not overcome extrinsic inhibition of OPC differentiation by fibrinogen”.

`CN1CCC[C@@H]1CCO[C@](C)(c1ccccc1)c1ccc(Cl)cc1` [clemastine]: in data set [2], the “Fibrinogen-induced phosphorylation of SMAD1/5” value is given as “did not block”. Besides, in the data set on primary rat OPCs (fibrinogen 2.5 mg/ml, differentiation media without T3 or growth factors, 3 days), the “OPC differentiation to mature OLs in the presence of fibrinogen (clemastine dose-response)” value was “did not enhance OPC differentiation to mature OLs in the presence of fibrinogen”. Also, in the data set on primary rat OPCs (3 days), the “Cell-fate switch of OPCs to GFAP+ cells by fibrinogen” value is “did not inhibit SMAD1/5 phosphorylation, a key pathway downstream of BMP receptor activation, or rescue OPC cell fate switch to astrocytes” and the “OPC differentiation to mature MBP+ OLs” value is “did not overcome extrinsic inhibition of OPC differentiation by fibrinogen”. In addition, the “Number of MBP+ cells in control conditions” value with primary rat OPCs (no fibrinogen, differentiation media without T3 or growth factors, 3 days) was “increased”. For the same compound, the “Fibrinogen-induced expression of ID2” value in the data set on BMP target protein ID2 is on record as “did not block”.

Take `C[C@H]1C[C@H]2[C@@H]3CCC4=CC(=O)C=C[C@]4(C)[C@@]3(F)[C@@H](O)C[C@]2(C)[C@@]1(O)C(=O)CCl` [clobetasol]: in the data set on primary rat OPCs (3 days), the “OPC differentiation to mature MBP+ OLs” value is “did not overcome extrinsic inhibition of OPC differentiation by fibrinogen”.

Consider `Clc1ccc(COC(Cn2ccnc2)c2ccc(Cl)cc2Cl)c(Cl)c1` (stereo not drawn) [miconazole], for which the “OPC differentiation to mature MBP+ OLs” value with primary rat OPCs (3 days) is “did not overcome extrinsic inhibition of OPC differentiation by fibrinogen”.

As to `OCCOCCN1CCN(C2=Nc3ccccc3Sc3ccccc32)CC1` [quetiapine], the “OPC differentiation to mature MBP+ OLs” value in the data set on primary rat OPCs (3 days) is recorded as “did not overcome extrinsic inhibition of OPC differentiation by fibrinogen”.

For the compound fibrinogen, in the data set with primary rat OPCs (setting [4]), the “Decrease of MBP+ mature OLs as compared to controls” value is recorded as ~60% and the “Increase of GFAP+ astrocyte-like cells as compared to controls” value is listed as ~60%.
